According to patent US20230232833A1, “Synergistic Compositions for the Control of Mosquito-Borne Diseases” (Universite d'Angers, priority 2020, published 2023):

What was measured:
[1] = test system: Anopheles gambiae larvae of resistant strain AcerKis; assay: Larval sensitivity test (cup test), AcerKis strain; assay type: in vivo; settings: for LC10 - 24 hours / LC10 - 48 hours: AcerKis larvae, graphical projection from log-probit regression curves; for LC10 - 24 hours: 24 hours exposure; for LC10 - 48 hours: 48 hours exposure
Method: Larval Testing Protocol. The larval sensitivity test or cup test, which was used in the present study, assesses the sensitivity of mosquito larvae to insecticides and repellents. The larvae were placed in cups containing 100 mL of osmosis water added with the substance to be tested or with only solvent in the case of the controls (see FIG. 3). Four containers (cups) of 25 larvae were exposed to one modality, for a total of 100 larvae. The mortality rate was observed 24 hours after exposure to the insecticide. The mosquitoes used were late L3/early L4 larvae (last larval stages) of Anopheles gambiae, sensitive Kis reference strain and a resistant strain AcerKis, grown in the MIVEGEC laboratory under standardized conditions.
(§1) Methodology of the WHO-certified Test of the Sensitivity of Larvae to Insectivides and Repellents. The sensitivity to insecticides and repellents of the Anopheles gambia mosquito larvae of the sensitive Kis strain and of the resistant AcerKis and KdrKis strains, was determined using the larval sensitivity test (or WHO-certified cup test). The larvae, selected at the L3/L4 stages, were placed in cups containing 100 mL of osmosis water in the presence of the substance to be tested or only the solvent in the case of controls. Four cups of 25 larvae were exposed to one modality, for a total of 100 larvae. The mortality rate was observed 24 […] and 48 hours after exposure to the insecticide. The mortality rates presented herein were corrected for the mortality observed in the controls of each replicate according to the Abbott formula (Abbott, J. Econom. Entomol., 1925, 18: 265-267).

[2] = test system: Anopheles gambiae larvae of resistant strain KdrKis; assay: Larval sensitivity test (WHO-certified cup test), KdrKis strain; assay type: in vivo; settings: for LC10 - 24 hours / LC10 - 48 hours: KdrKis larvae, graphical projection from log-probit regression curves; for LC10 - 24 hours: 24 hours exposure; for LC10 - 48 hours: 48 hours exposure
Method: as §1

| SMILES | LC10 - 24 hours [1] | LC10 - 48 hours [1] | LC10 - 24 hours [2] | LC10 - 48 hours [2] | Mortality rate of larvae ([1]; AcerKis, IR3535 alone 1000 to 4000 mg/L, 24 and 48 hours) | Mortality rate of larvae ([2]; KdrKis, IR3535 alone 1000 to 4000 mg/L, 24 and 48 hours) |
| --- | --- | --- | --- | --- | --- | --- |
| CN1COCN(Cc2cnc(Cl)s2)C1=N[N+](=O)[O-] [Thiamethoxam, 3-[(2-Chloro-1,3-thiazol-5-yl)methyl]-5-methyl-N-nitro-1,3,5-oxadiazinan-4-imine] | 0.04 mg/L | 0.01 mg/L | 0.04 mg/L | 0.02 mg/L | – | – |
| CCCCN(CCC(=O)OCC)C(C)=O [IR3535, ethyl N-acetyl-N-butyl-β-alaninate] | – | – | – | – | less than 5% | less than 5% |
| N#C/N=C1\SCCN1Cc1ccc(Cl)nc1 [Thiacloprid, {(2Z)-3-[(6-Chloropyridin-3-yl)methyl]-1,3-thiazolidin-2-ylidene}cyanamide] | 0.02 mg/L | 0.01 mg/L | 0.02 mg/L | 0.01 mg/L | – | – |
